Assay results taken from US6689381B2, “Liposomal benzoquinazoline thymidylate synthase inhibitor formulations” (OSI Pharmaceuticals, Inc., priority 2000, dated 2004).
Like-named read-outs stand apart in the source and are kept apart here.

Experiments:
[1] = in vivo; set-up: species or system Male Sprague-Dawley rats; details: male, Sprague-Dawley, rat, iv, 1 mg/kg
Experimental: GW1843 (M.W. 500.51 g/mol) was obtained from Glaxo Wellcome, Inc. and suspended as an aqueous. Briefly, 616.74 milligrams of GW1843 was suspended in 1.4 mL 2 N NaOH. The solution was mixed until dissolved. To the dissolved solution 30 mL saline was added. The pH was adjusted to 7.15 with 2 N HCl. Finally, the solution was brought to 46.545 mL with saline. The nominal concentration was 13.25 mg/mL. UV absorption in 0.1 N sodium hydroxide at 266 nm, based on an extinction coefficient of 4.34×104 cm^−1 M^−1, determined the concentration. The concentration by UV spectroscopy was 13.97 mg/mL (5.4% difference from expected). The value determined by spectroscopy was utilized for standards in the HPLC assay. NX1843 lot SMC-991-96 (see Table 1A) was used for making quality control solutions.
Male Sprague-Dawley rats weighing 343.91 to 420.19 grams were used for the study. The in-life phase of the study was conducted in Boulder Colo. in accordance with the guidelines for animal welfare and care (NRC Publication Guide for the Care and Use of Laboratory Animals, 1996). IACUC protocol number N98010. Animals were allowed free access to food and water before and during treatment.
Individual animals treated with NX1843 were weighed and dosed at 1 mg/kg body weight by intravenous bolus administration into the tail vein while under isoflurane anesthesia.
Serial EDTA-blood samples (0.5 mL) were obtained at 5, 15, 30 and 45 minutes, and 1, 1.5 and 2 hr post-dosing for the GW1843 group while animals were under isoflurane anesthesia. For the NX1843 group, serial EDTA-blood samples (0.5 mL) were obtained at 10, 30 and 90 minutes and 4, 8, 24, 32, 48, 72 and 96 hours post-dosing. The EDTA-blood samples were immediately processed for plasma and plasma samples were stored at −20° C. until analysis.
An isocratic reverse phase high performance liquid chromatographic (HPLC) procedure was used for rapid determination of the total GW1843 concentration in rat EDTA-plasma. Following methanol precipitation of plasma protein (2 parts methanol to 1 part plasma), the protein was removed by centrifugation at 14,000×g for 10 minutes. A ZORBAX Eclipse™ XBD-C18 column (3 mm×15 cm) configured with a guard column was used to separate the soluble GW1843 (injection volume 20 μL). The HPLC buffer consisted of 80% 100-mM ammonium acetate pH 5.3, and 20% acetonitrile and the flow rate was 0.4 mL/min. The total run time was seven minutes and GW1843 was detected and quantified by ultraviolet absorbance at 264 nm. The standard curve consisted of free GW1843 spiked rat EDTA-plasma while the quality control samples consisted of NX1843 spiked rat EDTA-plasma. The range of the standard curve was 0.1 to 30.0 μg/mL.
The pharmacokinetic parameters for total GW1843 after i.v administration of GW1843 or liposome encapsulated GW1843 were assessed by a non-compartmental method using WinNonlin (version 1.5). The log/linear trapazoidal rule was used. For non-compartmental analysis, all three time points were utilized for the estimation the elimination phase for free GW1843 while the last 5 time points were utilized to estimate the elimination half-life of NX1843. Cmax values were estimated by extrapolation to zero time. Pharmacokinetic parameters were determined for each animal in the study. From values obtained in each group the mean and SD of each parameter was determined. The parameters estimated included:
The observed clearance (CL) of GW1843 following administration was calculated as: […]
Comparison of treatment groups was performed by unpaired t-tests of data obtained in the same experiment. A p-value of <0.05 was considered significant. Tests were performed using GraphPad Instat version 1.0 (GraphPad Software).

[2] = test system: human colon tumor xenograft model (HCT-8, thymidine kinase (TK)-/-); type: in vivo; details: for durable cures: until termination at day 57
Text: Female Nu/Nu mice (18-24 g, 10-14 weeks old) were obtained from Harlan Sprague Dawley, and housed in microisolator filtration racks and maintained with filtered acidified water and sterile lab chow ad libitum. The human colon tumor xenograft model (HCT-8, thymidine kinase (TK)−/−) was obtained from Dr. Youcef M. Rustum (Roswell Park, Buffalo, N.Y.), and established in-house as a useful model for evaluation of thymidylate synthase inhibitors. Animals were allowed to acclimate to their new environment for 1 week prior to tumor cell implantation. Tumors were established by injecting harvested tumor cells in a single subcutaneous site on the flank of the mice in the axillary region. The tumors were grown until approximately 200+/−50 mm^3 in size. The animals were then sorted according to body weight, grouped four animals/cage, and tattooed on the tail for permanent identification. Groups consisting of 8 tumor-bearing mice each were administered weekly doses of experimental agents by IV bolus injection through the tail vein. Tumor volumes were determined with vernier caliper measurements taken at right angles using the formula, (L×W^2/2) and body weights, were collected twice weekly. Data was plotted as % change in body weight vs. time in days, and % tumor volume increase vs. days.
T=(mean) time in days for treated group to reach cutoff size (2 grams)
C=(mean) time in days for control group to reach cutoff size (2 grams)
WC is the mean tumor weight of control group at time x
Wt is mean tumor weight of treated group at time x
% Regression=100 (Wo−Wi)/Wo; where Wo is the mean tumor weight for treated group at the initiation of treatment and Wi=the mean tumor weight for that group at time some time x after treatment. Many times the time x=24-48 hr after the final dose of therapy.
The log10 cell kill (gross)=[T−C value in days/(3.32)(Td)
Where T−C=time difference in days between Treated and Control tumors to reach a defined end point; and Td is the Tumor Volume Doubling time in days from the best-fit straight line from a log-linear growth plot of the control tumors exponential growth (100-800 mg range). The conversion of the T−C values to the net log10 tumor cell kill are provided by subtraction of the duration of the treatment period from the T−C value and then dividing by 3.32×Td.
The initial experiment, designated NMX-427, tested the effects of GW1843U89 at two different dose levels, 50 and 100 mg/kg/day×17 days. The control group received vehicle alone. […] There were two durable cures, one in each of the dose groups, which remained until termination of the experiment at day 57. The side-effect toxicity as measured by gross body weight loss was minimal in both drug-treated groups, and was greatest in […]. […]

[3] = Concentration of GW1843 in Plasma

For `Cc1nc2ccc3ccc(CNc4ccc5c(c4)CN(C(CCC(=O)O)C(=O)O)C5=O)cc3c2c(=O)[nH]1` (stereo not shown) [GW1843], the “volume of distribution of free drug relative to the liposome formulation” value [1] was about 14.6 fold, the AUC(0-inf) ([1]; AUC(0-inf)) was 270 ± 28 ng·h/mL and the AUC(0-t) ([1]; AUC(0-last)) was 250 ng·h/mL. It also gave a clearance ([1]; CL) of 61 mL/min/kg, a Cmax ([1]; Cmax) of 1620 to 1990 ng/mL and a concentration at 0.083 hr [1, 3] of 991 ng/mL. The concentration at 0.25 hr [1, 3] was 214 ng/mL, the concentration at 0.5 hr [1, 3] was 117 ng/mL and the MRT inf ([1]; MRT(0-inf)) was 10.8 min. It also gave a half-life ([1]; T½ (terminal half-life)) of 8.52 ± 0.42 min, a Vd ([1]; Vss) of 0.654 L/kg and a clearance ([1]; plasma clearance) of 62.3 mL/min. The log cell kill ([2]; 50 mg/kg/day×17 days) was 3.0, the durable cures ([2]; 50 mg/kg/day×17 days) was “one” and the log cell kill ([2]; 100 mg/kg/day×17 days) was 3.3. For the same compound, the durable cures ([2]; 100 mg/kg/day×17 days) was “one”.
